{"source": "patent US20250295639A1", "about": "“METHODS FOR TREATING HEART DISEASES” (Cytokinetics, Incorporated, priority 2024, published 2025)", "key": {"[1]": {"tested_on": "patients with symptomatic oHCM", "test": "SEQUOIA-HCM: analysis by baseline Valsalva LVOT-G severity (severe <100 mmHg vs very severe ≥100 mmHg)", "type": "in vivo, human", "conditions": "for Change in KCCQ CSS, Mean (SD) Change from Baseline / LVOT-G - Rest, Mean (SD) Change from Baseline / LVOT-G - Valsalva, Mean (SD) Change from Baseline / Peak VO2, Mean (SD) Change from Baseline / Change in KCCQ CSS, Adjusted diff / LVOT-G - Rest, Adjusted diff / LVOT-G - Valsalva, Adjusted diff / NT-proBNP, Adjusted diff / Peak VO2, Adjusted diff / Proportional LVOT-G - Rest, Adjusted diff / Proportional LVOT-G - Valsalva, Adjusted diff / hs-cTpI, Adjusted diff: Baseline to Week 24; for Change in KCCQ CSS, Adjusted diff / LVOT-G - Rest, Adjusted diff / LVOT-G - Valsalva, Adjusted diff / NT-proBNP, Adjusted diff / Peak VO2, Adjusted diff / Proportional LVOT-G - Rest, Adjusted diff / Proportional LVOT-G - Valsalva, Adjusted diff / hs-cTpI, Adjusted diff / NYHA FC improvement, Rate difference / Proportion of patients with rest LVOT-G <30 mmHg & Valsalva LVOT-G <50 mmHg, Adjusted diff: vs placebo; for NYHA FC improvement, % of patients / Proportion of patients with rest LVOT-G <30 mmHg & Valsalva LVOT-G <50 mmHg / NYHA FC improvement, Rate difference / Proportion of patients with rest LVOT-G <30 mmHg & Valsalva LVOT-G <50 mmHg, Adjusted diff: Week 24; for proportional reduction from baseline in Valsalva (provoked) LVOT-G / proportional reduction from baseline in resting LVOT-G: week 24", "from_the_text": "Patients with Hypertrophic Obstructive Cardiomyopathy and Very Severe Left Ventricular Outflow Tract Obstruction. Patients enrolled in SEQUOIA-HCM (the study of Example 8), the pivotal phase 3 controlled trial of aficamten in adults with symptomatic oHCM, were grouped according to baseline Valsalva LVOT-G (severe obstruction [<100 mmHg] versus very severe obstruction [≥100 mmHg]). The prespecified primary endpoint was the proportional change from baseline to Week 24 in rest and Valsalva LVOT-G in severe versus very severe obstruction groups. Secondary endpoints included change in symptoms, cardiac biomarkers, and exercise capacity by group (Table 14). Of the 282 patients randomized, 209 patients had severe obstruction, and 73 had very severe obstruction. Compared to baseline, there was a profound reduction in resting and provoked obstruction in both groups. By week 24, the proportional reductions (95% CI) from baseline in the severely obstructed cohort were 69% (74 to 63) and 64% (69 to 56), and 73% (81 to 63) and 71% (79 to 61) in the very severe obstruction cohort, but there was no between-group difference (p>0.05). […] The post-titration doses by group were similar, with 81% and 88% in each cohort receiving the 15 mg and 20 mg dose strengths (p=0.21). There were no instances of per protocol down-titration in the very severe obstruction group, and treatment emergent adverse events (TEAE's) were balanced between groups (any TEAE 77 [71%] in severe versus 28 [85%] in very severe obstruction; p=0.60)."}, "[2]": {"tested_on": "patients with symptomatic oHCM", "test": "SEQUOIA-HCM cardiovascular magnetic resonance (CMR) substudy", "type": "in vivo, human", "conditions": "Echo Measurements; CMR Cohort N = 57 (Aficamten N = 25); Week 24"}, "[3]": {"conditions": "Baseline Valsalva LVOT-G <100 mmHg"}, "[4]": {"conditions": "Baseline Valsalva LVOT-G <100 mmHg, N = 109"}, "[5]": {"conditions": "Baseline Valsalva LVOT-G ≥100mmHg"}, "[6]": {"conditions": "Baseline Valsalva LVOT-G ≥100mmHg, N=33"}, "[7]": {"conditions": "severe obstruction (baseline Valsalva LVOT-G <100 mmHg)"}, "[8]": {"conditions": "very severe obstruction (≥100 mmHg)"}}, "data": [{"smiles": "CCc1nc(-c2ccc3c(c2)CC[C@H]3NC(=O)c2cnn(C)c2)no1", "note": "[aficamten, (R)—N-(5-(5-ethyl-1,2,4-oxadiazol-3-yl)-2,3-dihydro-1H-inden-1-yl)-1-methyl-1H-pyrazole-4-carboxamide]", "values": [{"measurement": "Change in KCCQ CSS, Mean (SD) Change from Baseline", "setting": "[1]; [3]", "value": 12}, {"measurement": "LVOT-G - Rest, Mean (SD) Change from Baseline", "setting": "[1]; [3]", "value": "−28 ± 25", "unit": "mmHg"}, {"measurement": "LVOT-G - Valsalva, Mean (SD) Change from Baseline", "setting": "[1]; [3]", "value": "−38 ± 31", "unit": "mmHg"}, {"measurement": "Peak VO2, Mean (SD) Change from Baseline", "setting": "[1]; [3]", "value": "1.8 ± 3.2", "unit": "mL/min/kg"}, {"measurement": "Change in KCCQ CSS, Adjusted diff", "setting": "[1]; [3]", "value": "+8"}, {"measurement": "LVOT-G - Rest, Adjusted diff", "setting": "[1]; [3]", "value": "−35", "unit": "mmHg"}, {"measurement": "LVOT-G - Valsalva, Adjusted diff", "setting": "[1]; [3]", "value": "−43", "unit": "mmHg"}, {"measurement": "NT-proBNP, Adjusted diff", "setting": "[1]; [3]", "value": "−79", "unit": "%"}, {"measurement": "Peak VO2, Adjusted diff", "setting": "[1]; [3]", "value": "+1.6 mL/kg/min"}, {"measurement": "Proportional LVOT-G - Rest, Adjusted diff", "setting": "[1]; [3]", "value": "−69", "unit": "%"}, {"measurement": "Proportional LVOT-G - Valsalva, Adjusted diff", "setting": "[1]; [3]", "value": "−64", "unit": "%"}, {"measurement": "hs-cTpI, Adjusted diff", "setting": "[1]; [3]", "value": "−45", "unit": "%"}, {"measurement": "NYHA FC improvement, % of patients", "setting": "[1]; [4]", "value": "(62%)"}, {"measurement": "Proportion of patients with rest LVOT-G <30 mmHg & Valsalva LVOT-G <50 mmHg", "setting": "[1]; [4]", "value": "(73%)"}, {"measurement": "NYHA FC improvement, Rate difference", "setting": "[1]; [3]", "value": "+38.2%"}, {"measurement": "Proportion of patients with rest LVOT-G <30 mmHg & Valsalva LVOT-G <50 mmHg, Adjusted diff", "setting": "[1]; [3]", "value": "+63.7%"}, {"measurement": "Change in KCCQ CSS, Mean (SD) Change from Baseline", "setting": "[1]; [5]", "value": 9}, {"measurement": "LVOT-G - Rest, Mean (SD) Change from Baseline", "setting": "[1]; [5]", "value": "−60 ± 29", "unit": "mmHg"}, {"measurement": "LVOT-G - Valsalva, Mean (SD) Change from Baseline", "setting": "[1]; [5]", "value": "−82 ± 38", "unit": "mmHg"}, {"measurement": "Peak VO2, Mean (SD) Change from Baseline", "setting": "[1]; [5]", "value": "1.6 ± 2.8", "unit": "mL/min/kg"}, {"measurement": "Change in KCCQ CSS, Adjusted diff", "setting": "[1]; [5]", "value": "+4"}, {"measurement": "LVOT-G - Rest, Adjusted diff", "setting": "[1]; [5]", "value": "−52", "unit": "mmHg"}, {"measurement": "LVOT-G - Valsalva, Adjusted diff", "setting": "[1]; [5]", "value": "−68", "unit": "mmHg"}, {"measurement": "NT-proBNP, Adjusted diff", "setting": "[1]; [5]", "value": "−85", "unit": "%"}, {"measurement": "Peak VO2, Adjusted diff", "setting": "[1]; [5]", "value": "+1.8 mL/kg/min"}, {"measurement": "Proportional LVOT-G - Rest, Adjusted diff", "setting": "[1]; [5]", "value": "−73", "unit": "%"}, {"measurement": "Proportional LVOT-G - Valsalva, Adjusted diff", "setting": "[1]; [5]", "value": "−71", "unit": "%"}, {"measurement": "hs-cTpI, Adjusted diff", "setting": "[1]; [5]", "value": "−34", "unit": "%"}, {"measurement": "NYHA FC improvement, % of patients", "setting": "[1]; [6]", "value": "(49%)"}, {"measurement": "Proportion of patients with rest LVOT-G <30 mmHg & Valsalva LVOT-G <50 mmHg", "setting": "[1]; [6]", "value": "(52%)"}, {"measurement": "NYHA FC improvement, Rate difference", "setting": "[1]; [5]", "value": "+22.4%"}, {"measurement": "Proportion of patients with rest LVOT-G <30 mmHg & Valsalva LVOT-G <50 mmHg, Adjusted diff", "setting": "[1]; [5]", "value": "+51.2%"}, {"measurement": "proportional reduction from baseline in Valsalva (provoked) LVOT-G", "setting": "[1]; [7]", "value": 64, "unit": "%"}, {"measurement": "proportional reduction from baseline in resting LVOT-G", "setting": "[1]; [7]", "value": 69, "unit": "%"}, {"measurement": "proportional reduction from baseline in Valsalva (provoked) LVOT-G", "setting": "[1]; [8]", "value": 71, "unit": "%"}, {"measurement": "proportional reduction from baseline in resting LVOT-G", "setting": "[1]; [8]", "value": 73, "unit": "%"}, {"measurement": "LV Mass Index", "setting": "[2]", "value": "120 ± 32", "unit": "g/m2"}]}]}
